Laboratory results as given in US20120270819A1, “USE OF COMPOUNDS WITH SGLT-1/SGLT-2 INHIBITOR ACTIVITY FOR PRODUCING MEDICAMENTS FOR TREATMENT OF BONE DISEASE” (SANOFI, priority 2009, published 2012).

Test system: female Sprague-Dawley mature and young adult rats
Experiment: Ex vivo peripheral quantitative computed tomography (pQCT) of right femur (metaphysis, diaphysis, length)
Type: in vivo, rat
Details: Young Adults; for pQCT femur (diaphysis) CSMI / pQCT femur (diaphysis) Cortical Area / pQCT femur (diaphysis) Cortical BMC / pQCT femur (diaphysis) Cortical BMD / pQCT femur (diaphysis) Cortical Thickness / pQCT femur (diaphysis) Endosteal Circumference / pQCT femur (diaphysis) Periosteal Circumference / pQCT femur (diaphysis) Total Area / pQCT femur (diaphysis) Total BMC / pQCT femur (diaphysis) Total BMD / pQCT femur Length / pQCT femur metaphysis C/SC (Cortical/Subcortical) BMC / pQCT femur metaphysis C/SC (Cortical/Subcortical) BMD / pQCT femur metaphysis Total Area / pQCT femur metaphysis Total BMC / pQCT femur metaphysis Total BMD / pQCT femur metaphysis Trabecular BMC / pQCT femur metaphysis Trabecular BMD: mean
Procedure: The following were evaluated: clinical signs (at least weekly), body weight (weekly), food consumption (weekly), hormones (Days 13 and 27), serum and urinary biochemical markers of bone turnover (Days 13 and 27), serum chemistry (at necropsy), bone densitometry by dual energy X-ray absorptiometry (DXA) and peripheral quantitative computed tomography (pQCT) (Week 2 and 4, as well as ex vivo), macroscopic observations at necropsy, organ weights, histopathology, biomechanical strength testing and femoral length measurements.
3.2 Ex Vivo Peripheral Quantitative Computed Tomography (pQCT)
Peripheral QCT scans were performed ex vivo using an XCT Research SA or SA+ bone scanner with software version 5.50D. Scans were obtained for the right femur, L3 and L4 lumbar vertebra for all animals euthanized at the end of the treatment period as well as two found dead animals. These two animals were scanned twice due to technical oversight, however only the first scans obtained were reported and the second scans were kept with the study file, this had no impact on the study as both scans were considered equivalent.
For the femurs, the scanned site was at the expected 3-point bending fracture site (diaphysis). This site was analyzed using Cortmode 2 for cortical bone measurements only (Table 5). An additional slice was obtained in the metaphysis. The metaphysis scan was not performed for the femur of three animals due to condyles detachment from the femur during trimming.
The femoral length was measured as part of the ex vivo pQCT scanning procedures and was reported for the right femur of all animals with the exception of 3 animas due to damaged femoral condyles.
All analyses were performed using the LOOP option of the analysis software. All other data generated as a result of the LOOP option were retained with the raw data but not reported. The most appropriate analysis mode for the femur and the lumbar vertebrae was used and documented in the raw data and the analysis details are presented in Table 6. All scan analysis data was retained and re-analyses documented.

COc1ccc(Cc2c(OC3OC(CO)C(F)C(O)C3O)n[nH]c2C(F)(F)F)cc1 (stereo not drawn) [Example 5 of formula II]
pQCT femur (diaphysis) CSMI, percent difference from Vehicle Control (10 mg/kg/day): −1.3%
pQCT femur (diaphysis) Cortical Area, percent difference from Vehicle Control (10 mg/kg/day): −0.4%
pQCT femur (diaphysis) Cortical BMC, percent difference from Vehicle Control (10 mg/kg/day): −0.8%
pQCT femur (diaphysis) Cortical BMD, percent difference from Vehicle Control (10 mg/kg/day): −0.4%
pQCT femur (diaphysis) Cortical Thickness, percent difference from Vehicle Control (10 mg/kg/day): 0.15%
pQCT femur (diaphysis) Endosteal Circumference, percent difference from Vehicle Control (10 mg/kg/day): −0.7%
pQCT femur (diaphysis) Periosteal Circumference, percent difference from Vehicle Control (10 mg/kg/day): −1.2%
pQCT femur (diaphysis) Total Area, percent difference from Vehicle Control (10 mg/kg/day): −0.9%
pQCT femur (diaphysis) Total BMC, percent difference from Vehicle Control (10 mg/kg/day): 0.2%
pQCT femur (diaphysis) Total BMD, percent difference from Vehicle Control (10 mg/kg/day): 1.1%
pQCT femur Length, percent difference from Vehicle Control (10 mg/kg/day): −3.8%
pQCT femur metaphysis C/SC BMC, percent difference from Vehicle Control (10 mg/kg/day): 10.7%
pQCT femur metaphysis C/SC BMD, percent difference from Vehicle Control (10 mg/kg/day): 6.8%
pQCT femur metaphysis Total Area, percent difference from Vehicle Control (10 mg/kg/day): 3.7%
pQCT femur metaphysis Total BMC, percent difference from Vehicle Control (10 mg/kg/day): 16.7%
pQCT femur metaphysis Total BMD, percent difference from Vehicle Control (10 mg/kg/day): 12.6%
pQCT femur metaphysis Trabecular BMC, percent difference from Vehicle Control (10 mg/kg/day): 41.4%
pQCT femur metaphysis Trabecular BMD, percent difference from Vehicle Control (10 mg/kg/day): 36.4%
pQCT femur (diaphysis) CSMI (10 mg/kg/day): 3.8 mm^4
pQCT femur (diaphysis) Cortical Area (10 mg/kg/day): 4.7 mm^2
pQCT femur (diaphysis) Cortical BMC (10 mg/kg/day): 5.6 mg/mm
pQCT femur (diaphysis) Cortical BMD (10 mg/kg/day): 1182.8 mg/cm^3
pQCT femur (diaphysis) Cortical Thickness (10 mg/kg/day): 0.54 mm
pQCT femur (diaphysis) Endosteal Circumference (10 mg/kg/day): 6.9 mm
pQCT femur (diaphysis) Periosteal Circumference (10 mg/kg/day): 10.2 mm
pQCT femur (diaphysis) Total Area (10 mg/kg/day): 8.6 mm^2
pQCT femur (diaphysis) Total BMC (10 mg/kg/day): 6.2 mg/mm
pQCT femur (diaphysis) Total BMD (10 mg/kg/day): 721.8 mg/cm^3
pQCT femur Length (10 mg/kg/day): 31.9 mm
pQCT femur metaphysis C/SC (Cortical/Subcortical) BMC (10 mg/kg/day): 7.9 mg/mm
pQCT femur metaphysis C/SC (Cortical/Subcortical) BMD (10 mg/kg/day): 877.1 mg/cm^3
pQCT femur metaphysis Total Area (10 mg/kg/day): 15.0 mm^2
pQCT femur metaphysis Total BMC (10 mg/kg/day): 10.3 mg/mm
pQCT femur metaphysis Total BMD (10 mg/kg/day): 690.2 mg/cm^3
pQCT femur metaphysis Trabecular BMC (10 mg/kg/day): 2.5 mg/mm
pQCT femur metaphysis Trabecular BMD (10 mg/kg/day): 410.7 mg/cm^3
pQCT femur (diaphysis) CSMI, percent difference from Vehicle Control (50 mg/kg/day): 0.6%
pQCT femur (diaphysis) Cortical Area, percent difference from Vehicle Control (50 mg/kg/day): −0.6%
pQCT femur (diaphysis) Cortical BMC, percent difference from Vehicle Control (50 mg/kg/day): −0.7%
pQCT femur (diaphysis) Cortical BMD, percent difference from Vehicle Control (50 mg/kg/day): −0.1%
pQCT femur (diaphysis) Cortical Thickness, percent difference from Vehicle Control (50 mg/kg/day): −0.01%
pQCT femur (diaphysis) Endosteal Circumference, percent difference from Vehicle Control (50 mg/kg/day): −0.7%
pQCT femur (diaphysis) Periosteal Circumference, percent difference from Vehicle Control (50 mg/kg/day): −0.3%
pQCT femur (diaphysis) Total Area, percent difference from Vehicle Control (50 mg/kg/day): −0.7%
pQCT femur (diaphysis) Total BMC, percent difference from Vehicle Control (50 mg/kg/day): 0.0%
pQCT femur (diaphysis) Total BMD, percent difference from Vehicle Control (50 mg/kg/day): 0.9%
pQCT femur Length, percent difference from Vehicle Control (50 mg/kg/day): −4.9%
pQCT femur metaphysis C/SC BMC, percent difference from Vehicle Control (50 mg/kg/day): 18.4%
pQCT femur metaphysis C/SC BMD, percent difference from Vehicle Control (50 mg/kg/day): 13.6%
pQCT femur metaphysis Total Area, percent difference from Vehicle Control (50 mg/kg/day): 4.3%
pQCT femur metaphysis Total BMC, percent difference from Vehicle Control (50 mg/kg/day): 33.0%
pQCT femur metaphysis Total BMD, percent difference from Vehicle Control (50 mg/kg/day): 27.6%
pQCT femur metaphysis Trabecular BMC, percent difference from Vehicle Control (50 mg/kg/day): 92.0%
pQCT femur metaphysis Trabecular BMD, percent difference from Vehicle Control (50 mg/kg/day): 84.7%
pQCT femur (diaphysis) CSMI (50 mg/kg/day): 3.9 mm^4
pQCT femur (diaphysis) Cortical Area (50 mg/kg/day): 4.7 mm^2
pQCT femur (diaphysis) Cortical BMC (50 mg/kg/day): 5.6 mg/mm
pQCT femur (diaphysis) Cortical BMD (50 mg/kg/day): 1186.1 mg/cm^3
pQCT femur (diaphysis) Cortical Thickness (50 mg/kg/day): 0.54 mm
pQCT femur (diaphysis) Endosteal Circumference (50 mg/kg/day): 7.0 mm
pQCT femur (diaphysis) Periosteal Circumference (50 mg/kg/day): 10.2 mm
pQCT femur (diaphysis) Total Area (50 mg/kg/day): 8.6 mm^2
pQCT femur (diaphysis) Total BMC (50 mg/kg/day): 6.2 mg/mm
pQCT femur (diaphysis) Total BMD (50 mg/kg/day): 720.6 mg/cm^3
pQCT femur Length (50 mg/kg/day): 31.6 mm
pQCT femur metaphysis C/SC (Cortical/Subcortical) BMC (50 mg/kg/day): 8.4 mg/mm
pQCT femur metaphysis C/SC (Cortical/Subcortical) BMD (50 mg/kg/day): 932.6 mg/cm^3
pQCT femur metaphysis Total Area (50 mg/kg/day): 15.1 mm^2
pQCT femur metaphysis Total BMC (50 mg/kg/day): 11.8 mg/mm
pQCT femur metaphysis Total BMD (50 mg/kg/day): 782.0 mg/cm^3
pQCT femur metaphysis Trabecular BMC (50 mg/kg/day): 3.4 mg/mm
pQCT femur metaphysis Trabecular BMD (50 mg/kg/day): 556.0 mg/cm^3
